In EP0908457B1, “3-(1,2-benzisothiazol- and isoxazol-5-Y1)-2,4(1H,3H)-pyrimidinedione or thione and 3-(1,2-benzisothiazol- and isoxazol-5-y1)-4(3H)-pyrimidinone or thione herbicidal agents” (BASF AKTIENGESELLSCHAFT, priority 1997, dated 1999):

Columns and labels:
[1] = test system: Oryza sativa, (L.) Tebonnet; test: Rice tolerance to post-transplant applications under flooded paddy conditions (Example 187), ORYSAT (Rice, Tebonnet); details: for ORYSAT: herbicidal effect rating 0-9, three to four weeks after treatment; for herbicidal effect rating ORYSAT: rated three to four weeks after treatment
[2] = test system: Sagittaria pygmaea, L.; test: Preemergence weed control under flooded paddy conditions, SAGPY (Arrowhead (Pygmaea)); format: in vivo; details: flooded paddy; for SAGPY: preemergence weeds, herbicidal effect rating 0-9, three to four weeks after treatment; for herbicidal effect rating, SAGPY: preemergence, rated three to four weeks after treatment; for herbicidal effect rating, SAGPY: meaning of each grade not given here
[3] = test system: Cyperus iria; test: Preemergence weed control under flooded paddy conditions, CYPIR (Rice Flatsedge); format: in vivo; details: flooded paddy; for CYPIR: preemergence weeds, herbicidal effect rating 0-9, three to four weeks after treatment; for herbicidal effect rating, CYPIR: preemergence, rated three to four weeks after treatment; for herbicidal effect rating, CYPIR: meaning of each grade not given here
[4] = test system: Echinochloa oryzoides (Ard.) Fritsch.; test: Preemergence weed control under flooded paddy conditions, ECHORC (Watergrass (Calif.)); format: in vivo; details: flooded paddy; for ECHORC: preemergence weeds, herbicidal effect rating 0-9, three to four weeks after treatment; for herbicidal effect rating, ECHORC: preemergence, rated three to four weeks after treatment; for herbicidal effect rating, ECHORC: meaning of each grade not given here
[5] = test system: Cyperus serotinus, Rottb.; test: Preemergence weed control under flooded paddy conditions, CYPSE (Flatsedge); format: in vivo; details: for CYPSE: preemergence weeds, herbicidal effect rating 0-9, three to four weeks after treatment; for herbicidal effect rating, CYPSE: preemergence, rated three to four weeks after treatment; for herbicidal effect rating, CYPSE: meaning of each grade not given here

Row | SMILES | herbicidal effect rating ORYSAT ([1]; Rate 0.0620 kg/ha) | herbicidal effect rating ORYSAT ([1]; Rate 0.1250 kg/ha) | herbicidal effect rating ORYSAT ([1]; Rate 0.2500 kg/ha) | herbicidal effect rating, SAGPY ([2]; Rate 0.0620 kg/ha) | herbicidal effect rating, SAGPY ([2]; Rate 0.1250 kg/ha) | herbicidal effect rating, SAGPY ([2]; Rate 0.2500 kg/ha) | herbicidal effect rating, CYPIR ([3]; Rate 0.0620 kg/ha) | herbicidal effect rating, CYPIR ([3]; Rate 0.1250 kg/ha) | herbicidal effect rating, CYPIR ([3]; Rate 0.2500 kg/ha) | herbicidal effect rating, ECHORC ([4]; Rate 0.0620 kg/ha) | herbicidal effect rating, ECHORC ([4]; Rate 0.1250 kg/ha) | herbicidal effect rating, ECHORC ([4]; Rate 0.2500 kg/ha) | herbicidal effect rating, CYPSE ([5]; Rate 0.1250 kg/ha) | further results
1 | CC(c1ccccc1)S(=O)(=O)NC(=O)c1nsc2ccc(-n3c(=O)cc(C(F)(F)F)n(C)c3=O)cc12 (stereo not drawn) [Example 427, 1,2-Benzisothiazole-3-carboxamide, 5-[3,6-dihydro-3-methyl-2,6-dioxo-4-(trifluoromethyl)-1(2H)-pyrimidinyl]-N-[(alpha-methylbenzyl)-sulfonyl]-] | – | – | – | – | – | – | – | – | – | – | – | – | – | ORYSAT ([1]; 0.0320 kg/ha): 0.0; ORYSAT ([1]; 0.0620 kg/ha): 0.0; ORYSAT ([1]; 0.1250 kg/ha): 1.0; ORYSAT ([1]; 0.2500 kg/ha): 3.0; SAGPY ([2]; 0.0320 kg/ha): 4.0; SAGPY ([2]; 0.0620 kg/ha): 5.0; SAGPY ([2]; 0.1250 kg/ha): 6.0; SAGPY ([2]; 0.2500 kg/ha): 9.0; CYPIR ([3]; 0.0320 kg/ha): 7.0; CYPIR ([3]; 0.0620 kg/ha): 7.0; CYPIR ([3]; 0.1250 kg/ha): 7.0; CYPIR ([3]; 0.2500 kg/ha): 9.0; ECHORC ([4]; 0.0320 kg/ha): 7.0; ECHORC ([4]; 0.0620 kg/ha): 7.0; ECHORC ([4]; 0.1250 kg/ha): 9.0; ECHORC ([4]; 0.2500 kg/ha): 9.0; CYPSE ([5]; 0.0320 kg/ha): 0.0; CYPSE ([5]; 0.0620 kg/ha): 0.0; CYPSE ([5]; 0.2500 kg/ha): 4.0
2 | CCC(=O)COC(=O)COc1ccc(C)cc1-c1nsc2ccc(-n3c(=O)cc(C(F)(F)F)n(C)c3=O)cc12 [Example 577, Acetic acid, {{2-{5-[3,6-dihydro-3-methyl-2,6-dioxo-4-(trifluoromethyl)-1(2H)-pyrimidinyl]-1,2-benzisothiazol-3-yl}-p-tolyl}oxy}-, 2-oxobutyl ester] | 5.0 | 5.0 | 9.0 | 6.0 | 6.0 | 6.0 | 4.0 | 7.0 | 9.0 | 7.0 | 7.0 | 9.0 | 3.0 | herbicidal effect rating ORYSAT ([1]; Rate 0.0320 kg/ha): 4.0; herbicidal effect rating, SAGPY ([2]; Rate 0.0320 kg/ha): 4.0; herbicidal effect rating, CYPIR ([3]; Rate 0.0320 kg/ha): 2.0; herbicidal effect rating, ECHORC ([4]; Rate 0.0320 kg/ha): 6.0; herbicidal effect rating, CYPSE ([5]; Rate 0.0320 kg/ha): 0.0; herbicidal effect rating, CYPSE ([5]; Rate 0.0620 kg/ha): 3.0; herbicidal effect rating, CYPSE ([5]; Rate 0.2500 kg/ha): 3.0
3 | Cn1c(C(F)(F)F)cc(=O)n(-c2ccc3snc(C(C#N)=Cc4cnc[nH]4)c3c2)c1=O [Example 595, 1,2-Benzisothiazole-3-acetonitrile, 5-[3,6-dihydro-3-methyl-2,6-dioxo-4-(trifluoromethyl)-1(2H)-pyrimidinyl]-alpha-(imidazol-5-ylmethylene)-] | 0.0 | 0.0 | 2.0 | 0.0 | 0.0 | 0.0 | 0.0 | 2.0 | 4.0 | 0.0 | 3.0 | 4.0 | 0.0 | –
